{"source": "paper PMC8817134", "about": "“Galangin as a direct inhibitor of vWbp protects mice from Staphylococcus aureus‐induced pneumonia” (Journal of Cellular and Molecular Medicine, 2021)", "key": {"[1]": {"biological_target": "T1, vWbp (von Willebrand factor-binding protein) (Staphylococcus aureus, UniProt Q93SM9)", "T1 construct": "gene vwb; His-tagged, pET15b, E. coli BL21(DE3), Ni-NTA purified", "experiment": "tube and plate coagulation assay", "format": "biochemical", "conditions": "purified vWbp added to heparinised rabbit blood or fibrinogen agarose, 37 °C; 16-256 μg/ml galangin"}, "[2]": {"biological_target": "T2, vWbp (von Willebrand factor-binding protein) (Staphylococcus aureus, UniProt Q93SM9, M83A)", "T2 construct": "gene vwb", "experiment": "biochemical", "excerpt": "(§1) fluorescence quenching on vWbp (von Willebrand factor-binding protein)"}, "[3]": {"biological_target": "T3, vWbp (von Willebrand factor-binding protein) (Staphylococcus aureus, UniProt Q93SM9, L69A)", "T3 construct": "gene vwb", "experiment": "biochemical", "excerpt": "as §1"}, "[4]": {"biological_target": "T4, vWbp (von Willebrand factor-binding protein) (Staphylococcus aureus, UniProt Q93SM9, D70A)", "T4 construct": "gene vwb", "experiment": "biochemical", "excerpt": "as §1"}, "[5]": {"biological_target": "T5, vWbp (von Willebrand factor-binding protein) (Staphylococcus aureus, UniProt Q93SM9, W64A)", "T5 construct": "gene vwb", "experiment": "biochemical", "excerpt": "as §1"}, "[6]": {"biological_target": "T1, vWbp (von Willebrand factor-binding protein)", "experiment": "fluorescence quenching", "conditions": "read-out: WT vWbp (converted)", "excerpt": "as §1"}, "[7]": {"biological_target": "T1, vWbp (von Willebrand factor-binding protein)", "experiment": "biolayer interferometry (Octet RED, Ni-NTA sensor)", "conditions": "read-out: binding constant"}}, "data": [{"smiles": "O=c1c(O)c(-c2ccccc2)oc2cc(O)cc(O)c12", "note": "[galangin, 3,5,7-trihydroxyflavone]", "values": [{"measurement": "tube and plate coagulation assay", "setting": "[1]", "value": "these results demonstrated that galangin can inhibit the coagulase activity of vWbp"}, {"measurement": "Kd", "setting": "[2]", "value": 7.35, "unit": "µM"}, {"measurement": "Kd", "setting": "[3]", "value": 31.2, "unit": "µM"}, {"measurement": "Kd", "setting": "[4]", "value": 9.71, "unit": "µM"}, {"measurement": "Kd", "setting": "[5]", "value": 20, "unit": "µM"}, {"measurement": "Kd", "setting": "[6]", "value": 6.9, "unit": "µM"}, {"measurement": "Kd", "setting": "[7]", "value": 11, "unit": "µM"}]}]}
